# Assay results as given in patent US11041013B2, “Methods of preparation and composition of peptide constructs useful for treatment of rheumatoid arthritis” (Cel-Sci Corporation, priority 2008, dated 2021).
# What was measured:
# [1] = test system: collagen induced arthritis (CIA); assay: CIA model, arthritis index (AI) score; assay type: in vivo, DBA/1J mice; conditions: for effectiveness in the murine CIA model of RA relative to SEQ ID NO. 99: studies 1-5 and FIGS. 1-4; for progression of disease, as indicated by AI scores: two treatments of 33 nmoles in ICFA adjuvant, Enbrel 3 mg/kG daily for the first 14 days
# Method: The following five studies are of CEL-2000 therapeutic vaccine for collagen induced arthritis (CIA) where the first step was to identify a good animal model for testing the vaccine, which is the collagen induced arthritis (CIA) model in young (6-7) week old male DBA/1J mice. These mice received 2 injections of bovine collagen the first in complete Freund's adjuvant (CFA) on day 0 and then 3 weeks later on day 21, in Incomplete CFA. After the second collagen injection, the mice were evaluated daily for any joint swelling or redness. Each of the paws was scored on a 4 point scale (arthritis index Arthritis Index (AI)) with respect to the number of digits with symptoms and the thickness of the paw measured, at least 3-4 times a week. Each mouse was weighed weekly.
# The first study is the CIA model CEL-2000 therapeutic vaccination conjugate specificity effect on AI scores (study 4.1 see FIG. 1 and legend). When significant disease is noted, usually about day 28, the mice are grouped (n=8) with a range of scores between 1 and 6 and group mean of 2.5 to 3. At this point the therapy begins according to protocol. Controls include groups with induced disease but no therapy and groups of healthy mice without induced disease. A therapy control of Enbrel (3 mg/kG daily) was included. In this study (FIG. 1), mice received two treatments of 33 nmoles (for CEL-2000 equivalent to 4.8 mg/kG) of CEL-2000, (the same dose as used for the L.E.A.P.S. HSV vaccines), or other conjugates of the same collagen peptide used in CEL-2000 using the same ICBLs as in the HSV or EAM systems for comparison using a GMP grade ICFA adjuvant.
# AI scores are evaluations on a scale of 0=normal to 4=maximal effect of joint thickening, redness, immobilization of joints in a digit or total paw for each of the 4 paws in the CIA mouse model of rheumatoid arthritis.
# Treatment started when group score was 3.5. This was done to have all groups starting with same score, as opposed to the range between […] seen in the first study. The same dose of Enbrel as was used in the first study but was given every other day for the entire study period of 28 days.
# [2] = test system: collagen induced arthritis (CIA); assay: CIA model, histopathology of right rear feet; assay type: in vivo, DBA/1J mice; conditions: for disease pathology compared statistically with untreated CIA mice: Enbrel: 14 days after cessation of therapy, 3×CEL-2000: 3 weeks after immunization; for histopathology: bone resorption / histopathology: cartilage damage / histopathology: inflammation / histopathology: pannus: hind paw and ankle, Enbrel for 14 days, CEL-2000 100 nmol on days 0 and 7
# Excerpt: The fourth study is for the CIA model CEL-2000 therapeutic vaccination; histopathology (study 4.4 see FIG. 4 and legend). At the termination of the experiments the animals were euthanized, the right rear feet were collected and stored individually in buffered formalin to be fixed in preparation for paraffin embedding, sectioning, staining and analysis. The feet in buffered formalin were sent for processing, reading and plotting of the data (representative sections from mid group specimens were photographed).
# The pathologists scored the feet for disease pathology in 4 areas: inflammation, pannus, cartilage and bone. FIG. 4 is a summary plot of the analysis performed cores of the 4 areas from the following groups: Control no disease; CIA disease: CIA Disease Enbrel daily for 14 days continued for 2 more weeks before termination: CEL-2000 and CEL-2001 groups (vaccinated on day 0 and 7) from study 1 (FIG. 1) and from study 2 (FIG. 2) 1× and 3×CEL-2000 vaccinated groups on day 0 and 7.
# [3] = test system: vaccine peptides, collagen or citrulline or components used to make vaccines; conditions: mouse, in vivo
# Method: The fifth study is for the CIA-model CEL-2000 vaccination serum antibodies (study 4.5). Antibody production to the vaccine peptides, collagen or citrulline or components used to make vaccines were evaluated in mouse sera from the previous two sets of studies. As expected, all sera recognized the bovine collagen molecule used to induce the disease. Neither the dose, amount of vaccine, nor timing of vaccination seemed to affect the titer or isotype. […] No antibodies were detected with reactivity to the citrulline using a citrulline fibrin peptide substrate in the ELISA. […] (data not shown) L.E.A.P.S. conjugates serum cytokine studies
# cytokines = assay: Serum cytokines after immunization (Ray Biotech protein microarrays); assay type: in vivo, A/J mice; conditions: unmodified J ICBL emulsified in Seppic ISA51
# Method: The outcome of the immune response to vaccines is likely at least in part determined by the cytokines elicited by the immunization. Cytokines elicited by immunization of A/J mice with either the J, JgD or JH peptides emulsified in Seppic ISA51 were evaluated from serum obtained on days 3, 10 and 24 after immunization using Ray Biotech protein microarrays. […] IL12 is produced by DCs and macrophages and promotes the development of Th1 responses which are characterized by production of IL2 and IFN-γ. […] L.E.A.P.S. conjugates ex vivo studies
Substance,effectiveness in the murine CIA model of RA relative to SEQ ID NO. 99 [1],"progression of disease, as indicated by AI scores ([1]; study 4.1)",disease pathology compared statistically with untreated CIA mice [2],histopathology: bone resorption [2],histopathology: cartilage damage [2],histopathology: inflammation [2],histopathology: pannus [2],other results
TGGKPGIAGFKGEQGPKGEP ((254)..(273) Type II Collagen; listed as Homo sapiens) [CEL-2002],less effective,–,–,–,–,–,–,–
Enbrel [reference compound],–,slightly more effective than the vaccine,not statistically different from untreated CIA mice,minimal,mild,mild,minimal,antibodies to Enbrel in sera [3]: antibodies could be detected
"DLLKNGERIEKVEGGGTGGKPGIAGFKGEQGPKGEP (Completely synthesized peptide construct) [CEL-2000, peptide J combined with the human type II collagen peptide 254-273]",–,limited the progression of disease,statistically had less disease pathology,less bone resorption in fewer digit joints,minimal,mild,minimal,"AI scores, reduction compared with other conjugates ([1]; study 4.1, 33 nmoles, versus CEL-2001 or CEL-2002): reduced to a greater extent than was seen with other conjugates; progression of disease over the experimental period ([1]; study 4.2, 100 nmol dose (3× treatment) on days 0 and 7): appeared to limit the progression of disease throughout the experimental period; progression of arthritis disease compared with Enbrel ([1]; study 4.2, 2 doses of 33 or 100 nmol subcutaneously on days 0 and 7 or 0 and 14, Enbrel every other day for 28 days): at least as good as those of mice treated with Enbrel; Joint thickening, redness, immobilization of joints in a digit or total paw ([1]; study 4.2, each of the 4 paws): reduced; progression of disease, as indicated by reduced AI scores ([1]; study 4.2, treatment started when group score was 3.5): limited the progression of disease; duration of effect versus Enbrel ([2]; 2 vaccinations at 100 nmol, 28 day period): more lasting effect than the multiple Enbrel treatments; protection by all 4 histopathology criteria (group ranking) ([2]; 3× (100 nmol) on days 0 and 7, FIG. 4): best protected group (least diseased) by all 4 criteria"
DLLKNGERIEKVEGGG [J],–,–,–,–,–,–,–,most remarkable change in cytokine levels upon immunization (cytokines): reduction in IL10 levels
DGQEEKAGVVSTGLI-GGGGS-TGGKPGIAGFKGEQGPKGEP (DGQEEKAGVVSTGLIGGGGSTGGKPGIAGFKGEQGPKGEP; Completely synthesized peptide construct) [CEL-2001],less effective,–,–,–,–,–,–,–
